Assays:
corn = assay: Test B pre/postemergence corn; format: in vivo, Zea mays
In short: (§1)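 Test chemicals in a non-phytotoxic solvent mixture with surfactant were sprayed preemergence onto planted seeds and postemergence onto plants 2 to 18 cm tall (1- to 4-leaf stage). After twelve to sixteen days in a greenhouse, injury was visually rated against untreated controls from 0 (no effect) to 10 (complete control).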

cocklebur = assay: Test B pre/postemergence cocklebur; format: in vivo, Xanthium strumarium
In short: as §1

bamyardgrass = assay: Test B flood test barnyardgrass; format: in vivo, Echinochloa crus-galli
In short: (§2)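 Each value is a visual injury score relative to controls, with 10 meaning complete control and 0 no effect. Evaluation took place twelve to sixteen days after the 2-leaf-stage plants were treated and kept in the greenhouse.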

morningglory = assay: Test B pre/postemergence morningglory; format: in vivo, Ipomoea hederacea
In short: as §1

bedstraw = assay: Test B pre/postemergence bedstraw; format: in vivo, Galium aparine; conditions: Postemergence
In short: as §1

purple nutsedge = assay: Test B pre/postemergence purple nutsedge; format: in vivo, Cyperus rotundus
In short: as §1

wheat = assay: Test B pre/postemergence wheat; format: in vivo, Triticum aestivum
In short: as §1

blackgrass = assay: Test B pre/postemergence blackgrass; format: in vivo, Alopecurus myosuroides
In short: as §1

rice = assay: Test B flood test rice; format: in vivo, Oryza sativa
In short: as §2

duck salad = assay: Test B flood test duck salad; format: in vivo, Heteranthera limosa
In short: as §2

velvetleaf = assay: Test B pre/postemergence velvetleaf; format: in vivo, Abutilon theophrasti
In short: as §1

surinam grass = assay: Test B pre/postemergence surinam grass; format: in vivo, Brachiaria decumbens
In short: as §1

wild oat = assay: Test B pre/postemergence wild oat; format: in vivo, Avena fatua
In short: as §1

giant foxtail = assay: Test B pre/postemergence giant foxtail; format: in vivo, Setaria faberii
In short: as §1

smallflower flatsedge = assay: Test B flood test smallflower flatsedge; format: in vivo, Cyperus difformis
In short: as §2

crabgrass = assay: Test B pre/postemergence crabgrass; format: in vivo, Digitaria sanguinalis
In short: as §1

[1] = Postemergence, Rate 62 g/ha, scale 0 to 10, 0 is no effect, 10 is complete control
[2] = Postemergence, Rate 125 g/ha, scale of 0 to 10 where 0 is no effect and 10 is complete control
[3] = Postemergence, Rate 250 g/ha, scale of 0 to 10, 0 is no effect, 10 is complete control
[4] = Postemergence, Rate 500 g/ha, scale of 0 to 10 where 0 is no effect and 10 is complete control
[5] = Preemergence, Rate 62 g/ha, scale 0 to 10 (0 no effect, 10 complete control)
[6] = Preemergence, Rate 125 g/ha, scale of 0 to 10 where 0 is no effect and 10 is complete control
[7] = Preemergence, Rate 250 g/ha, scale 0 to 10 (0 no effect, 10 complete control)
[8] = Preemergence, Rate 500 g/ha, scale of 0 to 10 where 0 is no effect and 10 is complete control
[9] = Rate 62 g/ha, flood test species, Pre-emergence, visual evaluation after twelve to sixteen days
[10] = Rate 125 g/ha, under heading Pre-emergence, flood test species, visual evaluation after twelve to sixteen days
[11] = Rate 250 g/ha, Pre-emergence (flood test species), scale 0 to 10, 0 is no effect, 10 is complete control
[12] = Rate 500 g/ha, Pre-emergence section of Table B, 0 to 10 scale (0 no effect, 10 complete control)

SMILES: CC(=O)N(C)CCn1c(=O)on(C(=O)N(c2ccc(F)cc2)C(C)C)c1=O [Compound 625]
- Plant response rating, Corn (corn; [1]): 0
- Plant response rating, Corn (corn; [2]): 0
- Corn plant response rating (corn; [3]): 0
- Plant response rating, Corn (corn; [4]): 3
- Corn plant response rating (corn; [5]): 0
- Corn plant response rating (corn; [6]): 0
- Plant response rating, Corn (corn; [7]): 0
- Plant response rating, Corn (corn; [8]): 3
- Plant response rating, Cocklebur (cocklebur; [1]): 0
- Plant response rating, Cocklebur (cocklebur; [2]): 0
- Cocklebur plant response rating (cocklebur; [3]): 0
- Plant response rating, Cocklebur (cocklebur; [4]): 0
- Cocklebur plant response rating (cocklebur; [5]): 0
- Cocklebur plant response rating (cocklebur; [6]): 0
- Plant response rating, Cocklebur (cocklebur; [7]): 0
- Plant response rating, Cocklebur (cocklebur; [8]): 0
- Plant response rating, Barnyardgrass (0 to 10 scale, 0 is no effect, 10 is complete control) (bamyardgrass; [9]): 0
- Barnyardgrass plant response rating (0 to 10 scale, 0 is no effect, 10 is complete control) (bamyardgrass; [10]): 0
- Barnyardgrass plant response rating (bamyardgrass; [11]): 0
- Barnyardgrass plant response rating (bamyardgrass; [12]): 0
- Plant response rating, Morningglory (morningglory; [1]): 0
- Plant response rating, Morningglory (morningglory; [2]): 1
- Morningglory plant response rating (morningglory; [3]): 1
- Plant response rating, Morningglory (morningglory; [4]): 2
- Morningglory plant response rating (morningglory; [5]): 0
- Morningglory plant response rating (morningglory; [6]): 0
- Plant response rating, Morningglory (morningglory; [7]): 2
- Plant response rating, Morningglory (morningglory; [8]): 3
- Plant response rating, Bedstraw (bedstraw; Rate 62 g/ha, scale 0 to 10, 0 is no effect, 10 is complete control): 0
- Plant response rating, Bedstraw (bedstraw; Rate 125 g/ha, scale of 0 to 10 where 0 is no effect and 10 is complete control): 0
- Plant response rating, Nutsedge (purple nutsedge; [1]): 0
- Plant response rating, Nutsedge (purple nutsedge; [2]): 0
- Nutsedge plant response rating (purple nutsedge; [3]): 0
- Nutsedge plant response rating (purple nutsedge; [5]): 0
- Nutsedge plant response rating (purple nutsedge; [6]): 0
- Plant response rating, Nutsedge (purple nutsedge; [7]): 0
- Plant response rating, Nutsedge (purple nutsedge; [8]): 0
- Plant response rating, Wheat (wheat; [1]): 0
- Plant response rating, Wheat (wheat; [2]): 0
- Wheat plant response rating (wheat; [3]): 0
- Wheat plant response rating (wheat; [5]): 0
- Wheat plant response rating (wheat; [6]): 0
- Plant response rating, Wheat (wheat; [7]): 0
- Plant response rating, Wheat (wheat; [8]): 3
- Plant response rating, Blackgrass (blackgrass; [1]): 0
- Plant response rating, Blackgrass (blackgrass; [2]): 2
- Blackgrass plant response rating (blackgrass; [3]): 7
- Plant response rating, Blackgrass (blackgrass; [4]): 7
- Blackgrass plant response rating (blackgrass; [5]): 0
- Blackgrass plant response rating (blackgrass; [6]): 3
- Plant response rating, Blackgrass (blackgrass; [7]): 7
- Plant response rating, Blackgrass (blackgrass; [8]): 9
- Plant response rating, Rice (0 to 10 scale, 0 is no effect, 10 is complete control) (rice; [9]): 0
- Rice plant response rating (0 to 10 scale, 0 is no effect, 10 is complete control) (rice; [10]): 0
- Rice plant response rating (rice; [11]): 0
- Rice plant response rating (rice; [12]): 0
- Plant response rating, Ducksalad (0 to 10 scale, 0 is no effect, 10 is complete control) (duck salad; [9]): 0
- Ducksalad plant response rating (0 to 10 scale, 0 is no effect, 10 is complete control) (duck salad; [10]): 0
- Ducksalad plant response rating (duck salad; [11]): 0
- Ducksalad plant response rating (duck salad; [12]): 0
- Plant response rating, Velvetleaf (velvetleaf; [1]): 0
- Plant response rating, Velvetleaf (velvetleaf; [2]): 0
- Velvetleaf plant response rating (velvetleaf; [3]): 0
- Velvetleaf plant response rating (velvetleaf; [5]): 0
- Velvetleaf plant response rating (velvetleaf; [6]): 0
- Plant response rating, Velvetleaf (velvetleaf; [7]): 1
- Plant response rating, Velvetleaf (velvetleaf; [8]): 6
- Plant response rating, B. signalgrass (surinam grass; [1]): 0
- Plant response rating, B. signalgrass (surinam grass; [2]): 0
- B. signalgrass plant response rating (surinam grass; [3]): 2
- Plant response rating, B. signalgrass (surinam grass; [4]): 5
- B. signalgrass plant response rating (surinam grass; [5]): 0
- B. signalgrass plant response rating (surinam grass; [6]): 4
- Plant response rating, B. signalgrass (surinam grass; [7]): 8
- Plant response rating, B. signalgrass (surinam grass; [8]): 10
- Plant response rating, Wild oats (wild oat; [1]): 0
- Plant response rating, Wild oats (wild oat; [2]): 0
- Wild oats plant response rating (wild oat; [3]): 0
- Wild oats plant response rating (wild oat; [5]): 0
- Wild oats plant response rating (wild oat; [6]): 0
- Plant response rating, Wild oats (wild oat; [7]): 3
- Plant response rating, Wild oats (wild oat; [8]): 5
- Plant response rating, Giant foxtail (giant foxtail; [1]): 0
- Plant response rating, Giant foxtail (giant foxtail; [2]): 3
- Giant foxtail plant response rating (giant foxtail; [3]): 5
- Plant response rating, Giant foxtail (giant foxtail; [4]): 9
- Giant foxtail plant response rating (giant foxtail; [5]): 6
- Giant foxtail plant response rating (giant foxtail; [6]): 9
- Plant response rating, Giant foxtail (giant foxtail; [7]): 10
- Plant response rating, Giant foxtail (giant foxtail; [8]): 10
- Plant response rating, S. Flatsedge (0 to 10 scale, 0 is no effect, 10 is complete control) (smallflower flatsedge; [9]): 0
- S. Flatsedge plant response rating (0 to 10 scale, 0 is no effect, 10 is complete control) (smallflower flatsedge; [10]): 0
- S. Flatsedge plant response rating (smallflower flatsedge; [11]): 0
- S. Flatsedge plant response rating (smallflower flatsedge; [12]): 0
- Plant response rating, Crabgrass (crabgrass; [1]): 1
- Plant response rating, Crabgrass (crabgrass; [2]): 0
- Crabgrass plant response rating (crabgrass; [3]): 4
- Plant response rating, Crabgrass (crabgrass; [4]): 8
- Crabgrass plant response rating (crabgrass; [5]): 2
- Crabgrass plant response rating (crabgrass; [6]): 7
- Plant response rating, Crabgrass (crabgrass; [7]): 8
- Plant response rating, Crabgrass (crabgrass; [8]): 10
